Assay results reported in article PMC6668441, “Comparative Study of Subcutaneous and Orthotopic Mouse Models of Prostate Cancer: Vascular Perfusion, Vasculature Density, Hypoxic Burden and BB2r-Targeting Efficacy” (Scientific Reports, 2019).

Assays:
[1] = test system: orthotopic PC-3 xenografts; test: Biodistribution, perfusion tracer, orthotopic PC-3 xenograft model; type: in vivo; conditions: for blood uptake / bone uptake / brain uptake / excretion (urine and fecal material) / heart uptake / kidney uptake / large intestine uptake / liver uptake / lung uptake / muscle uptake / pancreas uptake / small intestine uptake / spleen uptake / stomach uptake / tumor uptake (perfusion): orthotopic model, 10 µCi i.v., 5 min p.i., mean ± SD
Protocol: (§1) For the subcutaneous model, 5-week old female SCID mice were inoculated in the flanks with 5 × 10^6 PC-3 cells (American Type Culture Collection (ATCC), VA) in Matrigel®. The tumor size was monitored by caliper. For the generation of the orthotopic model, the PC-3-Luc cells were selected by 0.5 µg/mL puromycin twice before inoculation. The male 6-weeks SCID mice were anesthetized, the muscles of the abdomen area were cut after retracting the skin, and the prostate gland exposed. 50 μL of PC-3-Luc cell suspension at 0.5 × 10^6/mL in Matrigel® was injected into a dorsal prostatic lobe. The wound was closed in two layers and the skin was clipped. Animals were given analgesic drugs for 3 days and the tumors were monitored by an IVIS optical imaging system.
(§2) The mice were injected, monitored and dissected in the lab with the temperature of 23 °C and 17% relative humidity. All animals were awake until sacrifice. The body weight, tumor volume and tumor luminescence of the mice were recorded every three days. At four-to-seven weeks post-xenograft implantation, the mice were divided into three groups by tumor volume: <300, 300–700 and >700 mm^3 in both animal models. […] Each mouse (average weight: 20 g for female mice and 25 g for male mice) was treated with pimonidazole solution (80 mg/kg in PBS) via intraperitoneal injection. […] After an additional 1 h, the mice were injected intravenously with a PBS solution containing 10 µCi (370 kBq) of [^99mTc]NaTcO4 and 15 mg/kg Hoechst 33342. The animals were sacrificed 5 minutes later, and their tissues collected. The excised tissues were weighed, the radioactivity for each tissue was measured by γ-counter and the percentage injected dose per gram (%ID/g) was calculated for each tissue. […]
(§3) Establishment of Stably Transfected PC-3-Luc Cells
To generate the PC-3-Luc cells, we utilized pre-made lentivirus particles encoding luciferase and GFP (EF1a-Luciferase (firefly)-2A-GFP (Puro), AMSBIO) for transfection. Briefly, normal PC-3 cells were seeded in a 24-well plate using 0.5 mL of medium containing 0.5 × 10^5 cells/mL and incubated overnight. The medium was removed and replaced with 0.5 mL of fresh medium pre-mixed with 2.5 ȝL TransduxTM. To each well was added 2 ȝL of the lentivirus particle solution and swirled to mix. The plate was returned to the incubator and cultured for 3 days. Once the cells grew to confluence, they were harvested and transferred to larger plates (from 6-well plates to 60 mm dishes). 1.5 mL of suspended cells in PBS at a concentration of 5 × 10^6/mL was sorted by the FACS method to give the GFP positive (PC-3-Luc) cells that were returned to culture for in vitro and in vivo studies.
The normal PC-3 cells and PC-3-Luc were cultured in our laboratory, as per ATCC protocols, in Ham’s F-12K medium containing 10% FBS, 2.5 mM L-glutamine, 15 mM HEPES and 0.5 mM sodium pyruvate. Cells were incubated at 37 °C […]
(§4) All animal experiments were performed in accordance with the NIH animal use guideline and protocol approved by the […]

[2] = test system: subcutaneous PC-3 xenografts; test: Biodistribution, perfusion tracer, subcutaneous PC-3 xenograft model; type: in vivo; conditions: 5 min p.i., mean ± SD
Protocol: as §1, §2
The normal PC-3 cells and PC-3-Luc were cultured in our laboratory, as per ATCC protocols, in Ham’s F-12K medium
containing 10% FBS, 2.5 mM L-glutamine, 15 mM HEPES and 0.5 mM sodium pyruvate. Cells were incubated at 37 °C
as §4

[3] = biological target: T1, BB2r (gastrin-releasing peptide receptor) (Homo sapiens, UniProt P30550); test: In vitro competitive cell-binding, displacement of [125I-Tyr4]-Bombesin on PC-3 cells; conditions: PC-3 cells (~3×10^4), 4 °C, 40 min, RPMI 1640 pH 7.4, mean ± SEM (n = 6)
T1 construct: host or cells: PC-3 human prostate cancer cells (whole cells in suspension)
T1 sequence (P30550 whole entry): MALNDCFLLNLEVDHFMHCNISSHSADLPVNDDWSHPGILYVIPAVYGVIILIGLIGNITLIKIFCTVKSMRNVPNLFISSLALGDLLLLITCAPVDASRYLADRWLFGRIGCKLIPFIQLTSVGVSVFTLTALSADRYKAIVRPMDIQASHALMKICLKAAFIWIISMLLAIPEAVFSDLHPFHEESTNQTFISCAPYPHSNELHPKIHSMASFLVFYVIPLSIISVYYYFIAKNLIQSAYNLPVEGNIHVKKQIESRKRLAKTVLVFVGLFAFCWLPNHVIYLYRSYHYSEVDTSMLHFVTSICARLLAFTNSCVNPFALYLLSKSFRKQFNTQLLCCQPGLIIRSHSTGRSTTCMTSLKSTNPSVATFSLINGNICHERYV
Protocol: Data were presented as Mean ± SD/SEM as noted. […] In vitro stability studies of the radioconjugate in various buffers were analyzed by the two-tailed Student’s t-test. For comparison between the two models, analysis of the biodistribution studies, hypoxic burden and blood vessel density of tumor was carried out by a two-tailed Student’s t-test. Comparisons of the means of the BB2r-uptake, blood perfusion, hypoxic burden and blood vessel density of the tumors among the three tumor volume groups for each animal model were analyzed by one-way ANOVA. If the overall p-value was statistically significant, pairwise comparisons were adjusted using Tukey’s method. A p-value < 0.05 was considered statistically significant.
In Vitro Competitive Cell-Binding Studies […]
binding assays using PC-3 cells.
as §3
(firefly)-2A-GFP (Puro), AMSBIO) for transfection.
The medium was removed and replaced with 0.5 […]
and swirled to mix. […] Once the cells grew to confluence, they […]
1.5 mL of suspended cells in PBS at […]
to culture for in vitro and in vivo studies.
Cells were incubated at 37 °C
Development of PC-3 Xenograft SCID Mice
The tumor size was monitored during the growth by caliper measurement.
Development of PC-3 Orthotopic SCID mice […]
clips. […] The animals were monitored continuously for the following weeks. […]

[4] = tumor volume 300-700 mm^3, 10 µCi i.v.
[5] = tumor volume <300 mm^3, 10 µCi i.v.
[6] = tumor volume >700 mm^3, 10 µCi i.v.

[Na+].[O]=[Tc](=[O])(=[O])[O-] [[^99mTc]TcO4^−, sodium pertechnetate]
stomach uptake, orthotopic versus subcutaneous model ([1]; Table S1): approximately 8 fold
tumor perfusion, orthotopic versus subcutaneous model ([1]; across tumor volume groups): 3.7–4.3 fold
blood uptake ([1]; tumor volume 300-700 mm^3): 3.51 ± 1.28 %ID/g
bone uptake ([1]; tumor volume 300-700 mm^3): 1.27 ± 0.68 %ID/g
brain uptake ([1]; tumor volume 300-700 mm^3): 0.18 ± 0.18 %ID/g
excretion (urine and fecal material) ([1]; tumor volume 300-700 mm^3): 37.55 ± 14.08 %ID
heart uptake ([1]; tumor volume 300-700 mm^3): 1.20 ± 0.63 %ID/g
kidney uptake ([1]; tumor volume 300-700 mm^3): 2.25 ± 2.25 %ID/g
large intestine uptake ([1]; tumor volume 300-700 mm^3): 2.24 ± 0.57 %ID/g
liver uptake ([1]; tumor volume 300-700 mm^3): 2.92 ± 0.95 %ID/g
lung uptake ([1]; tumor volume 300-700 mm^3): 2.78 ± 1.27 %ID/g
muscle uptake ([1]; tumor volume 300-700 mm^3): 0.59 ± 0.18 %ID/g
pancreas uptake ([1]; tumor volume 300-700 mm^3): 5.17 ± 5.32 %ID/g
small intestine uptake ([1]; tumor volume 300-700 mm^3): 1.36 ± 0.45 %ID/g
spleen uptake ([1]; tumor volume 300-700 mm^3): 1.70 ± 1.20 %ID/g
stomach uptake ([1]; tumor volume 300-700 mm^3): 19.15 ± 6.40 %ID/g
tumor uptake (perfusion) ([1]; tumor volume 300-700 mm^3): 2.94 ± 0.76 %ID/g
blood uptake ([1]; tumor volume <300 mm^3): 3.13 ± 1.02 %ID/g
bone uptake ([1]; tumor volume <300 mm^3): 1.10 ± 0.73 %ID/g
brain uptake ([1]; tumor volume <300 mm^3): 0.14 ± 0.04 %ID/g
excretion (urine and fecal material) ([1]; tumor volume <300 mm^3): 39.51 ± 22.40 %ID
heart uptake ([1]; tumor volume <300 mm^3): 1.29 ± 0.61 %ID/g
kidney uptake ([1]; tumor volume <300 mm^3): 1.85 ± 0.91 %ID/g
large intestine uptake ([1]; tumor volume <300 mm^3): 1.52 ± 0.36 %ID/g
liver uptake ([1]; tumor volume <300 mm^3): 2.51 ± 0.73 %ID/g
lung uptake ([1]; tumor volume <300 mm^3): 2.86 ± 1.06 %ID/g
muscle uptake ([1]; tumor volume <300 mm^3): 0.47 ± 0.20 %ID/g
pancreas uptake ([1]; tumor volume <300 mm^3): 4.94 ± 4.84 %ID/g
small intestine uptake ([1]; tumor volume <300 mm^3): 1.31 ± 0.31 %ID/g
spleen uptake ([1]; tumor volume <300 mm^3): 2.84 ± 1.87 %ID/g
stomach uptake ([1]; tumor volume <300 mm^3): 16.33 ± 4.08 %ID/g
tumor uptake (perfusion) ([1]; tumor volume <300 mm^3): 2.23 ± 1.09 %ID/g
blood uptake ([1]; tumor volume >700 mm^3): 3.96 ± 0.90 %ID/g
bone uptake ([1]; tumor volume >700 mm^3): 0.85 ± 0.49 %ID/g
brain uptake ([1]; tumor volume >700 mm^3): 0.16 ± 0.07 %ID/g
excretion (urine and fecal material) ([1]; tumor volume >700 mm^3): 46.43 ± 13.26 %ID
heart uptake ([1]; tumor volume >700 mm^3): 1.79 ± 0.87 %ID/g
kidney uptake ([1]; tumor volume >700 mm^3): 1.45 ± 0.64 %ID/g
large intestine uptake ([1]; tumor volume >700 mm^3): 2.14 ± 0.55 %ID/g
liver uptake ([1]; tumor volume >700 mm^3): 3.02 ± 0.77 %ID/g
lung uptake ([1]; tumor volume >700 mm^3): 3.34 ± 0.84 %ID/g
muscle uptake ([1]; tumor volume >700 mm^3): 0.63 ± 0.24 %ID/g
pancreas uptake ([1]; tumor volume >700 mm^3): 4.03 ± 3.24 %ID/g
small intestine uptake ([1]; tumor volume >700 mm^3): 1.32 ± 0.78 %ID/g
spleen uptake ([1]; tumor volume >700 mm^3): 1.80 ± 1.37 %ID/g
stomach uptake ([1]; tumor volume >700 mm^3): 15.44 ± 3.98 %ID/g
tumor uptake (perfusion) ([1]; tumor volume >700 mm^3): 3.19 ± 0.66 %ID/g
average tumor uptake of perfusion tracer, orthotopic versus subcutaneous model ([1]; tumor volume 300–700 mm^3, p = 0.0001): 4.3 fold
average tumor uptake of perfusion tracer, orthotopic versus subcutaneous model ([1]; tumor volume <300 mm^3, p = 0.0008): 4.1 fold
average tumor uptake of perfusion tracer, orthotopic versus subcutaneous model ([1]; tumor volume >700 mm^3, p = 0.0001): 3.7 fold
blood uptake [2, 4]: 0.88 ± 0.34 %ID/g
bone uptake [2, 4]: 0.16 ± 0.06 %ID/g
brain uptake [2, 4]: 0.03 ± 0.02 %ID/g
excretion (urine and fecal material) [2, 4]: 85.78 ± 9.65 %ID
heart uptake [2, 4]: 0.22 ± 0.11 %ID/g
kidney uptake [2, 4]: 0.53 ± 0.19 %ID/g
large intestine uptake [2, 4]: 0.43 ± 0.47 %ID/g
liver uptake [2, 4]: 0.41 ± 0.19 %ID/g
lung uptake [2, 4]: 0.49 ± 0.21 %ID/g
muscle uptake [2, 4]: 0.11 ± 0.04 %ID/g
pancreas uptake [2, 4]: 3.30 ± 2.30 %ID/g
small intestine uptake [2, 4]: 0.61 ± 0.43 %ID/g
spleen uptake [2, 4]: 0.87 ± 0.74 %ID/g
stomach uptake [2, 4]: 2.41 ± 1.25 %ID/g
tumor uptake (perfusion) [2, 4]: 0.68 ± 0.49 %ID/g
blood uptake [2, 5]: 1.01 ± 0.06 %ID/g
bone uptake [2, 5]: 0.34 ± 0.27 %ID/g
brain uptake [2, 5]: 0.06 ± 0.04 %ID/g
excretion (urine and fecal material) [2, 5]: 83.64 ± 9.63 %ID
heart uptake [2, 5]: 0.40 ± 0.24 %ID/g
kidney uptake [2, 5]: 0.66 ± 0.33 %ID/g
large intestine uptake [2, 5]: 0.44 ± 0.35 %ID/g
liver uptake [2, 5]: 0.67 ± 0.43 %ID/g
lung uptake [2, 5]: 0.74 ± 0.27 %ID/g
muscle uptake [2, 5]: 0.19 ± 0.11 %ID/g
pancreas uptake [2, 5]: 2.26 ± 1.95 %ID/g
small intestine uptake [2, 5]: 0.52 ± 0.38 %ID/g
spleen uptake [2, 5]: 1.35 ± 1.21 %ID/g
stomach uptake [2, 5]: 2.26 ± 1.06 %ID/g
tumor uptake (perfusion) [2, 5]: 0.51 ± 0.31 %ID/g
blood uptake [2, 6]: 2.61 ± 1.54 %ID/g
bone uptake [2, 6]: 0.34 ± 0.31 %ID/g
brain uptake [2, 6]: 0.06 ± 0.05 %ID/g
excretion (urine and fecal material) [2, 6]: 82.76 ± 12.78 %ID
heart uptake [2, 6]: 0.43 ± 0.38 %ID/g
kidney uptake [2, 6]: 1.11 ± 0.92 %ID/g
large intestine uptake [2, 6]: 0.53 ± 0.53 %ID/g
liver uptake [2, 6]: 0.85 ± 0.77 %ID/g
lung uptake [2, 6]: 1.24 ± 1.00 %ID/g
muscle uptake [2, 6]: 0.21 ± 0.20 %ID/g
pancreas uptake [2, 6]: 6.22 ± 6.53 %ID/g
small intestine uptake [2, 6]: 0.53 ± 0.43 %ID/g
spleen uptake [2, 6]: 0.43 ± 0.51 %ID/g
stomach uptake [2, 6]: 3.03 ± 2.52 %ID/g
tumor uptake (perfusion) [2, 6]: 0.86 ± 0.37 %ID/g
tumor uptake (perfusion) ([2]; tumor volume >700 mm^3, 10 µCi i.v., listed as [99mTc]TcO4-): 0.86 ± 0.35 %ID/g

CSCC[C@H](NC(=O)[C@H](CC(C)C)NC(=O)[C@H](Cc1c[nH]cn1)NC(=O)CNC(=O)[C@@H](NC(=O)[C@H](C)NC(=O)[C@H](Cc1c[nH]c2ccccc12)NC(=O)[C@H](CCC(N)=O)NC(=O)CCOCCOCCOCCOCCNC(=O)[C@@H](CO)NC(=O)[C@@H](CO)NC(=O)[C@@H](CO)NC(=O)[C@@H](CO)NC(=O)[C@@H](CO)NC(=O)CN1CCN(CC(=O)O)CCN(CC(=O)O)CCN(CC(=O)O)CC1)C(C)C)C(N)=O [DOTA-SP714, DOTA-(D)S-(D)S-(D)S-(D)S-(D)S-PEG3–BBN(7–14)NH2]
IC50 [3]: 9.8 ± 1.7 nM
